The text below walks through data of a melting point compilation (Tetko et al.; mined from patent text by program, amines drawn as free bases though some values may be those of a salt).

What is called melting point is the temperature, or range, at which the solid turns liquid.

Molecule `COC(=O)c1cc(C)c(C(OC(=O)C(C)c2ccc3cc(OC)ccc3c2)c2cc(-n3ccnc3)ccc2C)c(C)c1` (stereo not given) returned a melting point of 115 to 117 °C. As for `COc1cc(C)c(C(=O)c2c(OC)ncc(Cl)c2C)c(OC)c1OC`, the melting point lay within 92 to 94 °C. `CC(C)n1c(=O)nc(-c2ccc3c(c2)OCO3)c2cc3c(cc21)OCCO3`: the melting point fell in the range of 229 to 231 °C. Molecule `COC(=O)Cc1cc(NC(=O)OC(C)(C)C)c(NC(=O)CC(=O)c2cccc(C#N)c2)cc1C#Cc1ccccc1` came in with a melting point of 138 °C. Take `CC(=O)Nc1cc(C)cc(OCc2ccccc2)c1C`: the melting point fell in the range of 139 to 140 °C. Take `CCCN(CCC)c1nsc(N)c1C#N`: the melting point is 136 to 138 °C. For `CCCO[C@@H](C)C(=O)Oc1ccc(C(=O)O)cc1`, the melting point was found to be 84 °C. Turning to `COC(=O)c1nc(-c2cc(N)c(Cl)cc2F)cc(N)c1Cl`, the melting point was in the range of 99 to 101 °C.

`Cc1cc(-c2c(-c3ccc(S(C)(=O)=O)cc3)cnn(-c3ccc(F)c(F)c3)c2=O)ccc1F` yielded a melting point of 166 to 168 °C. Molecule `COc1ccccc1-c1cccc(CC(NC(=O)c2c(Cl)cccc2Cl)C(=O)O)c1` (racemic) returned a melting point of 104 °C.

In the case of `O=C(Nc1cccc(Cl)c1)c1cc2ccccc2s1`, the melting point was 179 °C. `C#Cc1cnc2sc(S(=O)(=O)CCCCCCC)nn2c1=O` returned a melting point of 180 to 182 °C. For `COc1ccc(NC(=O)c2c(Cl)cccc2Cl)cc1OC1CCCC1`, the melting point was in the range of 184 to 185 °C. The figure for `COc1ccc([C@H]2C=CN(S(=O)(=O)c3ccc(OC)cc3)C(=O)[C@H]2CCC2C=CC=CC2=O)cc1` (stereo not given in full) is 159 to 161 °C; for `O=S(=O)(c1ccc(Nc2nccc(Nc3ccc(F)cc3)n2)cc1)N(CCN1CCCC1)[C@H]1CC[C@H](O)CC1` it is 135 °C. The figure for `CCCc1nc2c(N)ncc(Br)c2n1CCOCCNS(C)(=O)=O` is 129 to 131 °C; for `CC(C)(C)OC(=O)C(Cc1c[nH]cn1)N(C(=O)OC(C)(C)C)C(=O)OC(C)(C)C` (stereo not given) it is 98 °C; for `[N-]=[N+]=NCC(O)COc1ccc(-c2ccccc2)cc1` (stereo not given) it is 72.2 to 73.9 °C. Molecule `O=C(O)CON=C(c1ccccc1)c1cc2ccncc2[nH]1` had a melting point of 68 to 73 °C.

Regarding `CCOC(=O)/C=C(/c1ccccc1)c1ccc([N+](=O)[O-])c(COS(C)(=O)=O)c1`, the melting point amounted to 87.8 °C. For the molecule `COc1ccccc1OC1(Cl)C=NC(N2CCOCC2)=NC1Cl` (stereo not given), the melting point came to 180 °C. On to `Cc1nc2ccc(Cl)cc2c(=O)n1CCCn1ccnc1`, for which the melting point is 190 to 192 °C.

Turning to `Cc1c(-c2ccnn2-c2ccc(C#N)cc2)nc(C(N)=O)c(=O)n1-c1cccc(C(F)(F)F)c1`, the melting point was determined as 264 °C. `Cc1cc(C)c(C=CC#N)c(Br)c1` had a melting point of 95 to 96 °C. The molecule `N#CC(C#N)=CCOCCc1ccccc1` gave a melting point of 135 to 136 °C.

On to `Cc1c(Cl)ccc(S(=O)(=O)Cl)c1Cl`, for which the melting point was determined as 75 °C. `COc1cc(OC)c([N+](=O)[O-])c(OC)c1NC=O` displayed a melting point of 98 °C. Turning to `CC[C@@H](c1ccccc1)N(Cc1ccc(C(=O)OC)cc1)S(=O)(=O)c1ccc(Cl)cc1`, the melting point was 108 to 110 °C. For the molecule `OC(Cc1ccncc1)(c1ccc(F)cc1)c1ccc(F)cc1`, the melting point was in the range of 158 to 160 °C. On to `CCOC(=O)/C=C/C=C/c1ccc(OCc2nc(-c3ccccc3)oc2C)cc1`, for which the melting point lay within 137 to 138 °C. Molecule `Cn1c(C(F)(F)F)ccc(-c2cc3[nH]c(=O)oc3cc2Cl)c1=O` gave a melting point of 263 to 265 °C. On to `COC(=O)c1ccccc1NC(=O)Cc1ccccc1OC`, for which the melting point lay within 116 to 117 °C. The figure for `Nc1c(Cl)cc(C(=O)NC2CCN(CCO)CC2)c2c1CCO2` is 186 °C. `CC(C)(C)c1ccc2c(c1)C(C(=O)Nc1c(Cl)cccc1Cl)c1ccccc1CO2` (stereo not given) showed a melting point of 115 to 117 °C. `COc1ccc(NC(=O)C(F)F)cn1` displayed a melting point of 75 to 78 °C.
